Measured values published in publication PMC11310081, “Deep-learning-enabled antibiotic discovery through molecular de-extinction” (Nature Biomedical Engineering, 2024).
In brackets after ≈: the same amount, converted by molar mass. Entries after “also recorded” stand apart in the source; their conditions may differ. Peptide text beside a SMILES is read from it.

What was measured:
[1] = system: 11 clinically relevant bacterial pathogens; type: cell-based; details: for Active or Inactive: Supplementary Dataset 2, against the 11 pathogens tested; for MIC (lowest MIC value in the antimicrobial activity assays): Supplementary Table 17, lowest MIC among the strains tested
In short: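 Broth microdilution with peptides at 1 to 64 μmol l^−1. Inocula came from overnight LB cultures diluted 1:100 and grown at 37 °C to log phase (OD600 = 0.3–0.5); growth read by OD600, three biological replicates.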

A. baumannii ATCC 19606 [2] = assay: Neutropenic thigh infection mouse model; type: in vivo, CD-1 mice; details: neutropenic CD-1 mice
Experimental: Six-week-old female CD-1 mice from Charles River (stock number 18679700-022) were rendered neutropenic by two doses of cyclophosphamide (150 mg kg^−1) applied intraperitoneally with an interval of 72 h. One day after the last dose of cyclophosphamide, the mice were injected intramuscularly in their right thigh with a bacterial load of 10^6 c.f.u. ml^−1 of A. baumannii ATCC 19606 cells. The bacteria had been grown in LB broth, washed twice with PBS (pH 7.4), and resuspended to the desired concentration. Two hours after bacterial injection, peptides resuspended in water were administered intraperitoneally, and the untreated mice were inoculated with the same volume of deionized water. Before each injection, mice were anaesthetized with isoflurane and monitored for respiratory rate and pedal reflexes. Next, we monitored the establishment of the infection and euthanized the mice. The infected area was excised 2 days and 4 days post infection, homogenized using a bead beater for 20 min (25 Hz), and then serially diluted tenfold for quantification of colony-forming units in MacConkey agar plates. The experiments were performed with six mice per group. All experiments were performed blindly, and no animal subjects were excluded from the analysis. The thigh infection mouse model was approved by the University Laboratory Animal Resources from the University of Pennsylvania (protocol 807055). Statistical significance was determined using one-way ANOVA followed by Dunnett’s test in log10-transformed data to mitigate the effect of outliers; P values are presented for each group, with all groups being compared to the untreated control group.

A. baumannii ATCC 19606 [3] = assay: Skin abscess infection mouse model; type: in vivo, CD-1 mice; details: for bacterial count, skin abscess (Panel 6b): CD-1 mice; for Anti-infective activity in skin abscess model, in words: single dose at MIC, compared with untreated control and polymyxin B, n = 6
Experimental: A. baumannii ATCC 19606 cells were grown in LB medium to an OD600 = 0.5. Cells were washed twice with sterile phosphate-buffered saline (PBS) (pH 7.4, 13,000 r.p.m. for 2 min) and resuspended to a final concentration of 10^6 (A. baumannii cells) colony-forming units per millilitre (c.f.u. ml^−1). Six-week-old female CD-1 mice from Charles River (stock number 18679700-022) were anaesthetized with isoflurane, and their backs were sterilized and shaved. A superficial linear skin abrasion was made with a needle to damage the stratum corneum and upper layer of the epidermis. An aliquot of 20 μl containing the bacterial load resuspended in PBS was inoculated over the scratched area. Two hours after the infection, peptides diluted in water at their MIC value were administered to the infected area, and the untreated mice were inoculated with the same volume of deionized water. Mice were euthanized, and the area of scarified skin was excised 2 days and 4 days post infection, homogenized using a bead beater for 20 min (25 Hz) and then serially diluted tenfold for quantification of colony-forming units. This quantitative method was used as it has been established to accurately reflect the number of bacteria present in a given infected area. MacConkey agar plates were used as A. baumannii colonies appear purple in this medium and can easily be distinguished from other strains. The experiments were performed with six mice per group. All experiments were performed blindly, and no animal subjects were excluded from the analysis. The skin abscess infection mouse model was approved by the University Laboratory Animal Resources from the University of Pennsylvania (protocol 806763). Statistical significance was determined using one-way analysis of variance (ANOVA) followed by Dunnett’s test in log10-transformed data to mitigate the effect of outliers; P values are presented for each group, with all groups being compared to the untreated control group.

[4] = A. baumannii ATCC 19606, day 2, replicate 1
[5] = A. baumannii ATCC 19606, day 2, replicate 2
[6] = A. baumannii ATCC 19606, day 2, replicate 3
[7] = A. baumannii ATCC 19606, day 2, replicate 4
[8] = A. baumannii ATCC 19606, day 2, replicate 5
[9] = A. baumannii ATCC 19606, day 2, replicate 6
[10] = A. baumannii ATCC 19606, day 4, replicate 1
[11] = A. baumannii ATCC 19606, day 4, replicate 2
[12] = A. baumannii ATCC 19606, day 4, replicate 3
[13] = A. baumannii ATCC 19606, day 4, replicate 4
[14] = A. baumannii ATCC 19606, day 4, replicate 5
[15] = A. baumannii ATCC 19606, day 4, replicate 6

| Compound | Active or Inactive [1] | MIC (lowest MIC value in the antimicrobial activity assays) [1] [µM] | bacterial count, thigh infection (Panel 6d) (A. baumannii ATCC 19606 [2]; [4]) | bacterial count, thigh infection (Panel 6d) (A. baumannii ATCC 19606 [2]; [5]) | bacterial count, thigh infection (Panel 6d) (A. baumannii ATCC 19606 [2]; [6]) | bacterial count, thigh infection (Panel 6d) (A. baumannii ATCC 19606 [2]; [7]) | bacterial count, thigh infection (Panel 6d) (A. baumannii ATCC 19606 [2]; [8]) | bacterial count, thigh infection (Panel 6d) (A. baumannii ATCC 19606 [2]; [9]) | bacterial count, thigh infection (Panel 6d) (A. baumannii ATCC 19606 [2]; [10]) | bacterial count, thigh infection (Panel 6d) (A. baumannii ATCC 19606 [2]; [11]) | bacterial count, thigh infection (Panel 6d) (A. baumannii ATCC 19606 [2]; [12]) | bacterial count, thigh infection (Panel 6d) (A. baumannii ATCC 19606 [2]; [13]) | bacterial count, thigh infection (Panel 6d) (A. baumannii ATCC 19606 [2]; [14]) | bacterial count, thigh infection (Panel 6d) (A. baumannii ATCC 19606 [2]; [15]) | bacterial count, skin abscess (Panel 6b) (A. baumannii ATCC 19606 [3]; [4]) | bacterial count, skin abscess (Panel 6b) (A. baumannii ATCC 19606 [3]; [5]) | bacterial count, skin abscess (Panel 6b) (A. baumannii ATCC 19606 [3]; [6]) | bacterial count, skin abscess (Panel 6b) (A. baumannii ATCC 19606 [3]; [7]) | bacterial count, skin abscess (Panel 6b) (A. baumannii ATCC 19606 [3]; [8]) | bacterial count, skin abscess (Panel 6b) (A. baumannii ATCC 19606 [3]; [9]) | also measured |
| --- | --- | --- | --- | --- | --- | --- | --- | --- | --- | --- | --- | --- | --- | --- | --- | --- | --- | --- | --- | --- | --- |
| CC[C@H](C)[C@H](NC(=O)[C@@H](N)CC(C)C)C(=O)N[C@H](C(=O)N[C@@H](CS)C(=O)N[C@@H](Cc1ccccc1)C(=O)N[C@@H](Cc1ccccc1)C(=O)N[C@@H](CCCNC(=N)N)C(=O)N[C@@H](CCC(N)=O)C(=O)N[C@@H](CC(C)C)C(=O)N[C@@H](CCCCN)C(=O)N[C@@H](Cc1ccccc1)C(=O)N[C@@H](Cc1c[nH]cn1)C(=O)N[C@@H](Cc1ccccc1)C(=O)O)C(C)C [Megalocerin-1] (H-LIVCFFRQLKFHF-OH; N-terminus and C-terminus assumed) | Active | 8 (≈ 13.6 µg/mL) | 1.2e+008 | 2.0e+007 | 2.2e+008 | 2.0e+008 | 1.2e+008 | 2.8e+008 | 6.0e+008 | 1.0e+009 | 4.0e+007 | 6.0e+007 | 4.0e+007 | 2.0e+007 | 800000 | 2000000 | 2000000 | 800000 | 600000 | 1000000 | bacterial count, skin abscess (Panel 6b) (A. baumannii ATCC 19606 [3]; [10]): 1200000; bacterial count, skin abscess (Panel 6b) (A. baumannii ATCC 19606 [3]; [11]): 1000000; bacterial count, skin abscess (Panel 6b) (A. baumannii ATCC 19606 [3]; [12]): 400000; bacterial count, skin abscess (Panel 6b) (A. baumannii ATCC 19606 [3]; [13]): 400000; bacterial count, skin abscess (Panel 6b) (A. baumannii ATCC 19606 [3]; [14]): 1000000; bacterial count, skin abscess (Panel 6b) (A. baumannii ATCC 19606 [3]; [15]): 400000; Anti-infective activity in skin abscess model, in words (A. baumannii ATCC 19606 [3]): inhibited the proliferation of the infection for up to 4 days after treatment |
| CC[C@H](C)[C@H](N)C(=O)N[C@@H](Cc1ccccc1)C(=O)N[C@@H](CC(C)C)C(=O)N[C@@H](Cc1c[nH]cn1)C(=O)N[C@@H](CC(C)C)C(=O)N[C@@H](CCCCN)C(=O)N[C@H](C(=O)N[C@@H](CC(C)C)C(=O)N[C@@H](CCCCN)C(=O)N[C@H](C(=O)N[C@H](C(=O)N[C@@H](CCCNC(=N)N)C(=O)N[C@@H](CC(C)C)C(=O)N[C@@H](CC(C)C)C(=O)O)[C@@H](C)CC)[C@@H](C)CC)[C@@H](C)CC [Elephasin-2] (H-IFLHLKILKIIRLL-OH; N-terminus and C-terminus assumed) | Active | 1 (≈ 1.73 µg/mL) | 2e+007 | 4e+007 | 4e+007 | 4e+007 | 8e+007 | 1e+008 | 1400000 | 1000000 | 4000000 | 1000000 | 800000 | 4000000 | 200000 | 200000 | 8000000 | 4000000 | 200000 | 400000 | bacterial count, skin abscess (Panel 6b) (A. baumannii ATCC 19606 [3]; [10]): 40000; bacterial count, skin abscess (Panel 6b) (A. baumannii ATCC 19606 [3]; [11]): 20000; bacterial count, skin abscess (Panel 6b) (A. baumannii ATCC 19606 [3]; [12]): 800000; bacterial count, skin abscess (Panel 6b) (A. baumannii ATCC 19606 [3]; [13]): 800000; bacterial count, skin abscess (Panel 6b) (A. baumannii ATCC 19606 [3]; [14]): 200; bacterial count, skin abscess (Panel 6b) (A. baumannii ATCC 19606 [3]; [15]): 200; Anti-infective activity in skin abscess model, in words (A. baumannii ATCC 19606 [3]): comparable to that of the widely used antibiotic polymyxin B; also recorded: inhibited the proliferation of the infection for up to 4 days after treatment; also recorded: cleared the infection in some of the mice |
